For the test, the target named is WIL-FL (Homo sapiens, UniProt P01721). Description: Unlabeled LC Protease Sensitivity Assay (proteinase K). As to conditions: small molecule 10 μM, WIL-FL 5 μM, proteinase K 50 nM, 2 hours at 37° C. Format: biochemical. In outline: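 WIL-FL light chain (5 μM) in PBS pH 7.4 + 0.02% Pluronic F-127 digested with proteinase K (50 nM) for 2 h at 37 °C with 10 μM compound (1% DMSO). Intact WIL-FL quantified by size-exclusion UPLC (A280). Fold protection = (A_compound−A_vehicle)/(A_no_protease−A_vehicle) from peak areas.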
With `CCN(CC)c1ccc2c(C)c(CCN3C(=O)NC4(CCN(S(=O)(=O)c5ccccc5)CC4)C3=O)c(=O)oc2c1` [Compound 200, 3-(2-(7-(diethylamino)-4-methyl-2-oxo-2H-chromen-3-yl)ethyl)-8-(phenylsulfonyl)-1,3,8-triazaspiro[4.5]decane-2,4-dione], the “Protection (fold protection of LC from protease)” value is recorded as “A (A < 0.3))”. Turning to `CCN(CC)c1ccc2c(C)c(CCN3C(=O)NC4(CCN(S(=O)(=O)c5ccccc5)C4)C3=O)c(=O)oc2c1` (stereo not shown) [Compound 201, 3-(2-(7-(diethylamino)-4-methyl-2-oxo-2H-chromen-3-yl)ethyl)-7-(phenylsulfonyl)-1,3,7-triazaspiro[4.4]nonane-2,4-dione], the “Protection (fold protection of LC from protease)” value is “B (3 ≤ B < 0.6)”. In the case of `CCN(CC)c1ccc2c(C)c(CCN3C(=O)NC4(CCN(S(=O)(=O)c5cccnc5)C4)C3=O)c(=O)oc2c1` (stereo not shown) [Compound 202, 3-(2-(7-(diethylamino)-4-methyl-2-oxo-2H-chromen-3-yl)ethyl)-7-(pyridin-3-ylsulfonyl)-1,3,7-triazaspiro[4.4]nonane-2,4-dione], the “Protection (fold protection of LC from protease)” value was “C (C ≥ 0.6)”. Regarding `CCN(CC)c1ccc2c(C)c(CCN3C(=O)NC4(CCN(S(=O)(=O)CC)C4)C3=O)c(=O)oc2c1` (stereo not shown) [Compound 203, 3-(2-(7-(diethylamino)-4-methyl-2-oxo-2H-chromen-3-yl)ethyl)-7-(ethylsulfonyl)-1,3,7-triazaspiro[4.4]nonane-2,4-dione], the “Protection (fold protection of LC from protease)” value is “C (C ≥ 0.6)”. For the molecule `CCN(CC)c1ccc2c(C)c(CCN3C(=O)NC4(CCN(S(=O)(=O)NC)C4)C3=O)c(=O)oc2c1` (stereo not shown) [Compound 204, 3-(2-(7-(diethylamino)-4-methyl-2-oxo-2H-chromen-3-yl)ethyl)-N-methyl-2,4-dioxo-1,3,7-triazaspiro[4.4]nonane-7-sulfonamide], the “Protection (fold protection of LC from protease)” value is recorded as “B (3 ≤ B < 0.6)”. As to `CCN(CC)c1ccc2c(C)c(CCN3C(=O)NC4(CCN(C(=O)c5ncccn5)C4)C3=O)c(=O)oc2c1` (stereo not shown) [Compound 205, 3-(2-(7-(diethylamino)-4-methyl-2-oxo-2H-chromen-3-yl)ethyl)-7-(pyrimidine-2-carbonyl)-1,3,7-triazaspiro[4.4]nonane-2,4-dione], the “Protection (fold protection of LC from protease)” value is given as “B (3 ≤ B < 0.6)”.

Consider `CCN(CC)c1ccc2c(C)c(CCN3C(=O)NC4(CCN(C(=O)c5ncccn5)CC4)C3=O)c(=O)oc2c1` [Compound 206, 3-(2-(7-(diethylamino)-4-methyl-2-oxo-2H-chromen-3-yl)ethyl)-8-(pyrimidine-2-carbonyl)-1,3,8-triazaspiro[4.5]decane-2,4-dione], for which the “Protection (fold protection of LC from protease)” value is given as “A (A < 0.3))”.

With `CCN(CC)c1ccc2c(C)c(CCN3C(=O)NC4(CCN(C(=O)c5ccncn5)C4)C3=O)c(=O)oc2c1` (stereo not shown) [Compound 207, 3-(2-(7-(diethylamino)-4-methyl-2-oxo-2H-chromen-3-yl)ethyl)-7-(pyrimidine-4-carbonyl)-1,3,7-triazaspiro[4.4]nonane-2,4-dione], the “Protection (fold protection of LC from protease)” value was “B (3 ≤ B < 0.6)”.

Consider `CCN(CC)c1ccc2c(C)c(CCN3C(=O)NC4(CCN(C(=O)c5ccncn5)CC4)C3=O)c(=O)oc2c1` [Compound 208, 3-(2-(7-(diethylamino)-4-methyl-2-oxo-2H-chromen-3-yl)ethyl)-8-(pyrimidine-4-carbonyl)-1,3,8-triazaspiro[4.5]decane-2,4-dione], for which the “Protection (fold protection of LC from protease)” value was “B (3 ≤ B < 0.6)”. For `CCN(CC)c1ccc2c(C)c(CCN3C(=O)NC4(CCN(C(=O)c5cncnc5)C4)C3=O)c(=O)oc2c1` (stereo not shown) [Compound 209, 3-(2-(7-(diethylamino)-4-methyl-2-oxo-2H-chromen-3-yl)ethyl)-7-(pyrimidine-5-carbonyl)-1,3,7-triazaspiro[4.4]nonane-2,4-dione], the “Protection (fold protection of LC from protease)” value is reported as “B (3 ≤ B < 0.6)”. For the molecule `CCN(CC)c1ccc2c(C)c(CCN3C(=O)NC4(CCN(C(=O)c5cncnc5)CC4)C3=O)c(=O)oc2c1` [Compound 210, 3-(2-(7-(diethylamino)-4-methyl-2-oxo-2H-chromen-3-yl)ethyl)-8-(pyrimidine-5-carbonyl)-1,3,8-triazaspiro[4.5]decane-2,4-dione], the “Protection (fold protection of LC from protease)” value is “B (3 ≤ B < 0.6)”. As for `CCN(CC)c1ccc2c(C)c(CCN3C(=O)NC4(CCN(C(=O)c5cnccn5)C4)C3=O)c(=O)oc2c1` (stereo not shown) [Compound 211, 3-(2-(7-(diethylamino)-4-methyl-2-oxo-2H-chromen-3-yl)ethyl)-7-(pyrazine-2-carbonyl)-1,3,7-triazaspiro[4.4]nonane-2,4-dione], the “Protection (fold protection of LC from protease)” value is “B (3 ≤ B < 0.6)”.

For the molecule `CCN(CC)c1ccc2c(C)c(CCN3C(=O)NC4(CCN(C(=O)c5cnccn5)CC4)C3=O)c(=O)oc2c1` [Compound 212, 3-(2-(7-(diethylamino)-4-methyl-2-oxo-2H-chromen-3-yl)ethyl)-8-(pyrazine-2-carbonyl)-1,3,8-triazaspiro[4.5]decane-2,4-dione], the “Protection (fold protection of LC from protease)” value is on record as “B (3 ≤ B < 0.6)”. In the case of `CCN(CC)c1ccc2c(C)c(CCN3C(=O)NC4(CCN(c5nccn6ccnc56)CC4)C3=O)c(=O)oc2c1` [Compound 215, 3-(2-(7-(diethylamino)-4-methyl-2-oxo-2H-chromen-3-yl)ethyl)-8-(imidazo[1,2-a]pyrazin-8-yl)-1,3,8-triazaspiro[4.5]decane-2,4-dione], the “Protection (fold protection of LC from protease)” value is “C (C ≥ 0.6)”. With `CCN(CC)c1ccc2c(C)c(CCN3C(=O)NC4(CCN(c5ncnc6c5cnn6C)CC4)C3=O)c(=O)oc2c1` [Compound 216, 3-(2-(7-(diethylamino)-4-methyl-2-oxo-2H-chromen-3-yl)ethyl)-8-(1-methyl-1H-pyrazolo[3,4-d]pyrimidin-4-yl)-1,3,8-triazaspiro[4.5]decane-2,4-dione], the “Protection (fold protection of LC from protease)” value is reported as “C (C ≥ 0.6)”. In the case of `CCN(CC)c1ccc2c(C)c(CCN3C(=O)NC4(CCN(c5nccn6cnnc56)CC4)C3=O)c(=O)oc2c1` [Compound 217, 8-([1,2,4]triazolo[4,3-a]pyrazin-8-yl)-3-(2-(7-(diethylamino)-4-methyl-2-oxo-2H-chromen-3-yl)ethyl)-1,3,8-triazaspiro[4.5]decane-2,4-dione], the “Protection (fold protection of LC from protease)” value is on record as “C (C ≥ 0.6)”. Turning to `CCN(CC)c1ccc2c(C)c(CCOC(=O)NCc3cccc(-c4ccccc4O)c3)c(=O)oc2c1` [Compound 218, 2-(7-(diethylamino)-4-methyl-2-oxo-2H-chromen-3-yl)ethyl ((2′-hydroxy-[1,1′-biphenyl]-3-yl)methyl)carbamate], the “Protection (fold protection of LC from protease)” value is recorded as “C (C ≥ 0.6)”. The entry for `CCN(CC)c1ccc2c(C)c(CCOC(=O)NCc3cccc(-c4ccccc4OS(=O)(=O)F)c3)c(=O)oc2c1` [Compound 219, 3′-((((2-(7-(diethylamino)-4-methyl-2-oxo-2H-chromen-3-yl)ethoxy)carbonyl)amino)methyl)-[1,1′-biphenyl]-2-yl sulfurofluoridate] is “A (A < 0.3))”.

`CCN(CC)c1ccc2c(C)c(CCOC(=O)NCc3cncc(-c4ccc[nH]c4=O)c3)c(=O)oc2c1` [Compound 220, 2-(7-(diethylamino)-4-methyl-2-oxo-2H-chromen-3-yl)ethyl ((2′-oxo-1′,2′-dihydro-[3,3′-bipyridin]-5-yl)methyl)carbamate]: the “Protection (fold protection of LC from protease)” value was “A (A < 0.3))”.

The values above are taken from patent publication US11945806B2, “Stabilization of amyloidogenic immunoglobulin light chains” (The Scripps Research Institute, priority 2019, dated 2024).
